Measured values published in patent US20120301895A1, “METHODS OF MODULATING BINDING OF SON OF SEVENLESS TO PHOSPHATIDIC ACID AND IDENTIFYING COMPOUNDS THAT MODULATE SUCH BINDING” (THE RESEARCH FOUNDATION OF STATE UNIVERSITY OF NEW YORK, priority 2007, published 2012).

Test system: Ras
Assay: Ras activation pull-down assay in Cos1 cells transfected with HA-tagged Ras and Sos
Format: cell-based
Description: In FIG. 14A, MDA-MB-231 cells were plated and then placed in media containing 0.5% media 24 hr later. 24 hr later, the cells were treated with either DMSO or honokiol (20 μM) as indicated for 2 hr. At this point the cells were harvested and lysates were prepared and treated with the immobilized Ras binding domain of Raf1 as in FIGS. 12A-C. Ras-GTP bound to the Raf1 binding domain was recovered and subjected to Western blot analysis using the Pan-Ras antibody. Total Ras in the cell lysates and actin levels were also examined by Western blot analysis. In FIG. 14B, MDA-MB-231 cells were plated and 24 hr later were shifted to media containing 0.5% serum. The cells were then treated with EGF (200 ng/ml) for 10 min. The cells were also treated with honokiol (20 μM) prior to the addition of EGF for the times indicated. The levels of GTP-bound Ras, total Ras, and actin were then determined as in FIG. 14A. In FIG. 14C, Cos1 cells were transfected with plasmids expressing HA-tagged Ras (50 ng) and Sos (500 ng) for 24 hours. The cells were placed in serum free media overnight in the presence of increasing concentration of honokiol. Cells were then collected and Ras activation was determined using the pull-down assay as above. Levels of Ras-GTP, Sos, and Ras were determined by Western blot analysis using an antibody that recognized HA. In FIG. 14D, Cos1 cells were tranfected with the plasmid expressing HA-tagged Ras (50 ng) for 24 hours. […] Cells were then stimulated with 100 ng/ml EGF for the indicated times (min) and Ras activation was determined as in FIG. 14A. […] Cells were then stimulated with 100 ng/ml EGF for the indicated times (min) and Ras activation was determined as in FIG. 14A. […]
To further establish that honokiol was suppressing Ras activation, the effect in Cos1 cells was examined where background Ras activation was lower. […] 24 hr later, the cells were then shifted to serum-free conditions in the presence of increasing concentrations of honokiol and the levels of Ras, Sos, and GTP-bound Ras was evaluated. […]

C=CCc1ccc(O)c(-c2ccc(O)c(CC=C)c2)c1 [honokiol, Honokiol]
Ras-GTP levels (Cos1 cells with excess Sos, serum free overnight, at concentrations of 20 μM and higher): strongly suppressed
ability of EGF to increase the level of GTP-bound Ras (Cos1 cells, endogenous Sos, ectopic Ras, honokiol 50 μM, EGF 100 ng/ml): suppressed
effect on EGF-induced Ras activation when ectopically expressed Sos was introduced (Cos1 cells, honokiol 50 μM, EGF 100 ng/ml): more pronounced
